Reference: patent publication US20070166772A1, “Methods for selecting compounds using antibodies with activity as antagonist, antagonist or allosteric modulators” (priority 2003, published 2007)

Experiments:
[1] = test system: second extracellular loop of the 5-HT4 receptor (peptide C15Q); assay: Inhibition ELISA (IE): anti-peptide antibody against 5-HT4 receptor on the coated synthetic peptide C15Q; assay type: binding; details: FIG. 3
Experimental: • Coating • Corresponding peptide is dissolved extemporaneously in appropriate buffer. Peptide at calibrated concentration is coated on a highly absorbing microtitre plate. • Blocking of non-specific binding • Wash • The plate is washed with washing buffer (appendix 1). • Molecules to be screened on the peptide • Each molecule is dissolved and distributed on the plate.
Each molecule which is able to decrease the absorbance at 405 nm at around 20% from its control value is selected for the DMAE.
Five μg/ml of corresponding peptide (C15Q) was coated on a microtitre plate (Falcon, 96 wells). After blocking nonspecific binding sites with blocking buffer, polyclonal anti-C15Q antibodies at decreasing serial dilutions were allowed to react with the peptide.
The same protocol as mentioned above in “Example 1” was performed: […]

[2] = target: second extracellular loop of the muscarinic M2 receptor (homologue peptide) (Homo sapiens, UniProt P08172); assay: Indirect Inhibition ELISA (IIE): antibody against M2 receptor, homologue peptide and ligand in liquid phase; assay type: binding; details: FIG. 5
Experimental: The selected molecule should beside binding the parent peptide in solid phase also be able to bind it in liquid phase. The latter would mime the in vivo conformation of the parent peptide. • Coating • Corresponding peptide is dissolved extemporaneously in appropriate buffer. Peptide at calibrated concentration is coated on a highly absorbing microtitre plate. • Blocking of on-specific binding • Wash • The plate is washed with washing buffer (appendix 1). • Selected molecules to be tested on IIE • Each molecule dissolved at known concentration is distributed on the plate. Immediately different cascade concentration of the parent peptide is added to the well. This is thereafter followed by the first antibody at AD50 dilution and incubated for an appropriate time and at an optimal temperature. • Wash • The plate is washed with washing buffer (appendix 1). • Secondary antibodies • Peroxidase conjugated goat anti-rabbit antibodies diluted at appropriate dilution (appendix 2) is allowed to react with the bound polyclonal anti-GPCR antibodies for an appropriate time and at an optimal temperature. • Wash
The same protocol as mentioned above in “Example 1 ” was performed: […]

Sequence of second extracellular loop of the muscarinic M2 receptor (homologue peptide) (P08172 163-182 limits assumed): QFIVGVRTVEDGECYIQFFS

Row | SMILES | inhibition of the interaction of the anti-peptide antibody raised against the 5-HT4 receptor with the corresponding synthetic peptide [1] | competition with the homologue peptide for binding the anti-peptide antibodies [2]
1 | NCCc1c[nH]c2ccc(O)cc12 [5-HT, serotonin] | specifically inhibited | –
2 | CC[N+](CC)(CC)CCOc1cccc(OCC[N+](CC)(CC)CC)c1OCC[N+](CC)(CC)CC [gallamine] | – | able to compete with the homologue peptide and hinder the recognition between the homologue peptide and the anti-peptide in liquid phase
